Assay results: patent US20210379010A1, “COMPOSITIONS COMPRISING CANNABINOIDS FOR USE IN THE TREATMENT OF BIOFILM AND CONDITIONS ASSOCIATED WITH MICROBIAL, FUNGAL, BACTERIAL INFECTIONS” (Yissum Research Development Company of The Hebrew …, priority 2018, published 2021)
≈ marks a conversion by molar mass, not a printed value.

Legend:
C. albicans biofilm [1] = assay: MTT assay of C. albicans biofilm; assay type: cell-based
Protocol: To investigate the effect of the agents on preformed biofilms, biofilms were allowed to mature in for 24 h at 37° C. in a 6-well plate. The biofilms were washed twice with PBS. The active agents were then applied. The plates were further incubated for 24 h at 37° C. The amounts of biofilms, were determined quantitatively using a standard MTT reduction assay as described previously. Briefly, biofilms were overlaid with […] of 3-(4,5-dimethyl-2-thiazolyl)-2,5-diphenyl-2H-tetrazolium bromide (MTT) and incubated for 2 h at 37° C. Under these conditions, the lightly yellowish MTT was reduced to a blue tetrazolium salt accumulated within the metabolic active biofilms. The stain was then dissolved in DMSO and the absorbance value was measured at 570 nm. The accumulation of tetrazolium salt by the reduction of MTT is proportional to the number of viable cells growing in biofilm. Prior to dissolving in DMSO, biofilms were photographed and visualized. Assay was performed in triplicate.

S.aureus MRSA 43300 = assay: Growth of MRSA 43300, cannabinoid alone and combined with antibiotic (MIC/FIC/FICI); assay type: cell-based; conditions: MRSA 43300 growth; for MIC AMP: ampicillin alone; for MIC METH: methicillin alone
S.aureus MRSA 33592 = assay: Growth of MRSA 33592, cannabinoid alone and combined with antibiotic (MIC/FIC/FICI); assay type: cell-based; conditions: MRSA 33592 growth; for MIC AMP: ampicillin alone; for MIC METH: methicillin alone
[2] = system: S.aureus MRSA 33592 biofilm; assay: Biofilm formation of MRSA 33592, cannabinoid alone and combined with antibiotic (MBIC/FBIC/FBICI); assay type: cell-based; conditions: for MBIC AMP: ampicillin alone; for MBIC METH: methicillin alone
[3] = system: S.aureus MRSA 43300 biofilm; assay: Biofilm formation of MRSA 43300, cannabinoid alone and combined with antibiotic (MBIC/FBIC/FBICI); assay type: cell-based; conditions: for MBIC AMP: ampicillin alone; for MBIC METH: methicillin alone
[4] = system: fluconazole resistant C. albicans strains; assay type: cell-based; conditions: each agent alone or in combination; data not shown
S. mutans = S. mutans growth (MIC); assay type: cell-based; conditions: single S. mutans growth
S. mutans biofilm = S. mutans biofilm formation inhibition; assay type: cell-based; conditions: for MBIC50: S. mutans biofilm formation
[5] = system: mixed S. mutans-C. albicans; assay: Growth of C. albicans-S. mutans co-culture; assay type: cell-based; conditions: all tested doses
C. albicans biofilm [6] = assay: Microscopic observation of fungal morphology in biofilm; assay type: cell-based
C. albicans biofilm [7] = assay: Flow cytometry analysis of viable cells in fungal biofilm; assay type: cell-based; conditions: for granularity: control 136 AU; for cell size: control 260 AU
C. albicans biofilm [8] = assay: C. albicans biofilm formation inhibition; assay type: cell-based
[9] = system: mixed C. albicans-S. mutans biofilm; assay: Co-species C. albicans-S. mutans biofilm formation inhibition; assay type: cell-based
C. albicans = C. albicans growth (MIC); assay type: cell-based; conditions: single C. albicans growth; highest tested dose 64 μg/ml
[10] = system: S. aureus MRSA 24433 biofilm; assay: Biofilm formation of MRSA 24433, cannabinoid alone and combined with antibiotic (MBIC/FBIC/FBICI); assay type: cell-based; conditions: for MBIC METH: methicillin alone
S. aureus MRSA 24433 = assay: Growth of MRSA 24433, cannabinoid alone and combined with antibiotic (MIC/FIC/FICI); assay type: cell-based; conditions: for FIC METH / MIC METH: MRSA 24433 growth; for MIC METH: methicillin alone
P. aeruginosa biofilm = assay: CLSM of treated P. aeruginosa biofilm

CCCCC/C=C\C/C=C\C/C=C\C/C=C\CCCC(=O)OC(CO)CO [2-AG, 2-arachidonoyl glycerol]
C. albicans biofilm formation (MTT assay) (C. albicans biofilm [1]): dose-dependent inhibition

CC1(C)S[C@@H]2[C@H](NC(=O)[C@H](N)c3ccccc3)C(=O)N2[C@H]1C(=O)O [AMP, ampicillin, reference compound]
FIC AMP (S.aureus MRSA 43300; MIC of ampicillin in combination with AEA, Table 8B): 8 | FIC AMP (S.aureus MRSA 43300; MIC of ampicillin in combination with ARAS, Table 5B): 16 | MIC AMP (S.aureus MRSA 43300; Table 5B): 256 µg/mL | MIC AMP (S.aureus MRSA 43300; Table 8B): > 128 µg/mL | FIC AMP (S.aureus MRSA 33592; MIC of ampicillin in combination with AEA, Table 8A): 8 | FIC AMP (S.aureus MRSA 33592; MIC of ampicillin in combination with ARAS, Table 5A): 64 | MIC AMP (S.aureus MRSA 33592; Table 5A): 128 µg/mL | MIC AMP (S.aureus MRSA 33592; Table 8A): 128 µg/mL | FBIC AMP ([2]; MBIC of ampicillin in combination with AEA, Table 8A): 8 | FBIC AMP ([2]; MBIC of ampicillin in combination with ARAS, Table 5A): 32 | MBIC AMP ([2]; Table 5A): 128 | MBIC AMP ([2]; Table 8A): 128 | FBIC AMP ([3]; MBIC of ampicillin in combination with AEA, Table 8B): 8 | FBIC AMP ([3]; MBIC of ampicillin in combination with ARAS, Table 5B): 64 | MBIC AMP ([3]; Table 5B): 256 | MBIC AMP ([3]; Table 8B): >128

OC(Cn1cncn1)(Cn1cncn1)c1ccc(F)cc1F [FLU, fluconazole, reference compound]
growth of fluconazole resistant fungal strains [4]: not affected

CCCCCCC(C)(C)c1cc(O)c2c(c1)OC(C)(C)[C@@H]1CC=C(CO)C[C@@H]21 [HU210, 1,1-Dimethylheptyl-11-hydroxy-tetrahydrocannabinol]
MIC (S. mutans): 2 µg/mL (≈ 5.17 µM) | streptococcal biofilm formation (S. mutans biofilm; HU210 2 μg/ml): No streptococcal biofilm was formed | growth of co-culture [5]: not affected | fungal morphology in biofilm (C. albicans biofilm [6]; 8 μg/ml): influenced fungal morphology | yeast-to-hyphae transition (C. albicans biofilm [6]; 64 μg/ml): appearance of mainly yeast form of C. albicans | density of fungal mycelium (C. albicans biofilm [6]; increasing doses up to 64 μg/ml): decreased dose-dependently | granularity (C. albicans biofilm [7]; 8 μg/ml): 50 AU | cell size (C. albicans biofilm [7]; 8 μg/ml): 110 AU | viable C. albicans cells in biofilm (C. albicans biofilm [7]; 8 μg/ml, untreated control 88%): 20% | viable cells in fungal biofilm (C. albicans biofilm [7]; 64 μg/ml): totally reduced viable cells | granularity (C. albicans biofilm [7]; 64 μg/ml): 40 AU | cell size (C. albicans biofilm [7]; 64 μg/ml): 100 AU | biofilm formation at highest tested dose (C. albicans biofilm [8]; HU210 64 μg/ml): Almost no biofilm formed | MBIC50 (minimal biofilm inhibitory concentration 50, 50% of biofilm inhibition) (C. albicans biofilm [8]; single C. albicans biofilm formation): 2 µg/mL | MBIC50 [9]: 4 µg/mL | MIC, fungal growth (C. albicans): not detected at tested doses

COc1cccc(OC)c1C(=O)N[C@@H]1C(=O)N2[C@@H]1SC(C)(C)[C@@H]2C(=O)O [METH, methicillin, reference compound]
FIC METH (S.aureus MRSA 43300; MIC of methicillin in combination with AEA, Table 6C): 8 | FIC METH (S.aureus MRSA 43300; MIC of methicillin in combination with ARAS, Table 3C): 2 | MIC METH (S.aureus MRSA 43300; Table 3C): 32 µg/mL | MIC METH (S.aureus MRSA 43300; Table 6C): 32 µg/mL | FIC METH (S.aureus MRSA 33592; MIC of methicillin in combination with AEA, Table 6A): 16 | FIC METH (S.aureus MRSA 33592; MIC of methicillin in combination with ARAS, Table 3A): 8 | MIC METH (S.aureus MRSA 33592; Table 3A): 32 µg/mL | MIC METH (S.aureus MRSA 33592; Table 6A): 32 µg/mL | FBIC METH ([2]; MBIC of methicillin in combination with AEA, Table 6A): 8 | FBIC METH ([2]; MBIC of methicillin in combination with ARAS, Table 3A): 8 | MBIC METH ([2]; Table 3A): 32 | MBIC METH ([2]; Table 6A): 32 | FBIC METH ([10]; MBIC of methicillin in combination with AEA, Table 1): 16 µg/mL | FBIC METH ([10]; MBIC of methicillin in combination with AEA, Table 6B): 16 | FBIC METH ([10]; MBIC of methicillin in combination with ARAS, Table 3B): 16 | MBIC METH ([10]; Table 1): >64 µg/mL | MBIC METH ([10]; Table 3B): >64 | MBIC METH ([10]; Table 6B): >64 | FBIC METH ([3]; MBIC of methicillin in combination with AEA, Table 6C): 8 | FBIC METH ([3]; MBIC of methicillin in combination with ARAS, Table 3C): 8 | MBIC METH ([3]; Table 3C): 32 | MBIC METH ([3]; Table 6C): 32 | FIC METH (S. aureus MRSA 24433; MIC of methicillin in combination with AEA, Table 1): 16 µg/mL | FIC METH (S. aureus MRSA 24433; MIC of methicillin in combination with AEA, Table 6B): 16 | FIC METH (S. aureus MRSA 24433; MIC of methicillin in combination with ARAS, Table 3B): >64 | MIC METH (S. aureus MRSA 24433; Table 1): >64 µg/mL | MIC METH (S. aureus MRSA 24433; Table 3B): > 64 µg/mL | MIC METH (S. aureus MRSA 24433; Table 6B): > 64 µg/mL | MIC (S. aureus MRSA 24433; Staphylococcus aureus, MRSA, read-out: MIC METH): > 64 µg/mL

CCCCCCCC/C=C\CCCCCCCC(=O)N[C@@H](C)C(=O)O [OA, oleoyl alanine]
MBIC50 (S. mutans biofilm): 16 µg/mL

CCCCCCCC/C=C\CCCCCCCC(=O)NCCO [OEA, oleoyl ethanolamide]
MBIC50 (S. mutans biofilm): 64 µg/mL

CCCCCCCC/C=C\CCCCCCCC(=O)NCC(=O)O [OG, oleoyl glycine]
MBIC50 (S. mutans biofilm): 32 µg/mL

CCCCCCCCCCCCCCCC(=O)NCCO [PEA, palmitoyl ethanolamide]
layers/depth of P. aeruginosa biofilm (P. aeruginosa biofilm): reduced layers/depth of biofilm

gentamycin [reference compound]
decrease of MIC in combination (S.aureus MRSA 33592; AEA with gentamicin vs agent alone): 32 fold | FIC GEN (S.aureus MRSA 33592; MIC of gentamicin in combination with AEA, Table 7): 4 | FIC GEN (S.aureus MRSA 33592; MIC of gentamycin in combination with ARAS, Table 4): 4 | MIC GEN (S.aureus MRSA 33592; gentamicin alone, Table 7): 128 µg/mL | MIC GEN (S.aureus MRSA 33592; gentamycin alone, Table 4): 128 µg/mL | FBIC GEN ([2]; MBIC of gentamicin in combination with AEA, Table 7): 8 | FBIC GEN ([2]; MBIC of gentamycin in combination with ARAS, Table 4): 4 | MBIC GEN ([2]; gentamicin alone, Table 7): 128 | MBIC GEN ([2]; gentamycin alone, Table 4): 128
